This note sets out measurements from patent US12133908B2, “Personal care composition comprising taurine, arginine, glycine” (Colgate-Palmolive Company, priority 2015, dated 2024).

Assay [1] deals with 3D EpiDerm skin models (SIT 200 skin irritation model). As to the kind of experiment: in vitro skin irritation assay, IL-1α release by ELISA. It counts as cell-based. How it is done: To measure skin irritation, in vitro experiments are conducted using 3D EpiDerm skin models (SIT 200 skin irritation model, MatTek Corporation, Ashland, MA 01721). The irritation assay measures IL-la protein released by the cells to the media to evaluate the level of skin irritation and inflammation. In vitro skin samples are treated topically with 30 μl of test compounds (taurine (1% by weight) or taurine-L-arginine-glycine complex (1% by weight) of 2:1:1 (a mixture of 0.5% taurine, 0.25% L-arginine and 0.25% glycine, by weight) for 1 hour in tissue culture incubator. To induce irritation, cells are co-treated with 0.05% SDS and the test compounds. Following the incubation, skin samples are washed with PBS and placed in a culture medium and incubated for 24 hours. Cell culture media are collected for IL-la release assay. IL-la release is analyzed by ELISA assay kit (R&D Systems, Minneapolis, MN 55413). The greater IL-la release, the greater the irritation potential. […] Samples 1-6 are evaluated in the in vitro irritation assay as described above in Example 2.

Another assay deals with HaCaT cells. The assay is described as follows: in vitro migration assay (scratch gap closure) for barrier repair. Particulars: 24 hours incubation, taurine 0.0005% alone or with L-arginine 0.0001% and glycine 0.0001% (Example 1). It counts as cell-based, human.

Each structure is given as a SMILES string.

Method for HaCaT cells: To determine barrier repair function of taurine combined with L-arginine and glycine, in vitro experiments are conducted using HaCaT cells. HaCaT cells are spontaneously transformed aneuploid immortal keratinocyte cell line from adult human skin and are grown until 100% confluent. After that, each well is scratched with 1000 μl tip to create the gap and washed with 1 ml of PBS twice to eliminate dead floating cells. Following that, cells are treated with 1 ml of culture media for control (untreated), Taurine (0.0005% by weight), and amino acid complex of taurine (0.0005% by weight) combined with L-arginine (0.0001% by weight) and glycine (0.0001% by weight). Then, initial measurements of gap distance are taken using microscope (OLYMPUS IX71). Next, the treated cells are incubated for 24 hours and measurements are taken again.
The migration assay measures cell migration in order to evaluate the barrier repair.

With `CCCCCCCCCCCCOS(=O)(=O)[O-].[Na+]` [SDS, sodium dodecyl sulfate], the “IL-1α release (% of control)” value in assay [1] (0.05% SDS alone (Example 2)) was 120 % of control; in assay [1] (0.05% SDS alone (Example 4)), 140 % of control. Further, the “increase of IL-1α release” value in assay [1] (0.05% SDS alone vs untreated (Example 2)) is given as 20%.

Regarding `NCCS(=O)(=O)O` [taurine, 2-aminoethanesulfonic acid], in the assay on HaCaT cells, the “Cell migration in 24hr (% of control)” value is on record as 66 % of control. For the same compound, the “IL-1α release (% of control)” value was 114 % of control in assay [1] (1% test compound co-treated with 0.05% SDS (Example 4)) and 70 % of control in assay [1] (30 μl of 1% test compound co-treated with 0.05% SDS for 1 hour, then 24 hours in medium (Example 2)).
